Entries after “also recorded” stand apart in the source; their conditions may differ. Read-outs that look alike come from different tables or passages of the source.
What was measured:
[1] = 13-week oral toxicity study in rats; type: in vivo, rat; conditions: both sexes, rat, in vivo
Protocol: (§1) The objective of the study was to determine the toxicity of CBD-C4 following daily oral (gavage) administration to the rat for 4 and 13 weeks. The toxicokinetic profile of the CBD-C4 was also assessed.
(§2) Groups of 10 male and 10 female rats were doses at 1, 10 and 100 mg/kg/day for either 4 or 13 weeks.
(§3) Assessment of toxicity of CBD-C4 was based on mortality, clinical observations, post-dose observations, body weights, food consumption, ophthalmic observations, clinical and anatomic pathology.
(§4) Blood samples were collected on days 1 and 28 and week 13 of the study.

[2] = test system: rats; test: 13-week oral toxicity study in rats; type: in vivo, rat
Protocol: as §1, §2, §3, §4

[3] = Embryo-foetal development study in rats; type: in vivo, rat; conditions: female, Wistar (Han), rat, in vivo
Protocol: (§5) The objective of the study was to determine the effects of CBD-C4 on the embryonic and foetal development of the rat. The toxicokinetic profile of CBD-C4 was also assessed.
(§6) Three groups of 20 time-mated female Wistar (Han) rats were given CBD-C4 once daily by the oral (gavage) route from Day 6 to Day 17 of gestation at dose levels of 1, 10 or 100 mg/kg/day (at a constant dose volume of 5 mL/kg), to cover the period of organogenesis.
(§7) A similar group of rats was given the vehicle, sesame oil, following the same regimen to act as controls.
(§8) Blood samples were taken for toxicokinetic evaluation at pre-dose, 1, 2, 4, 6 and 24 hours after dosing on Days 6 and 17 of gestation. Clinical observations, body weight and food consumption were recorded. On Day 21 of gestation (GD 21) the females were euthanised, and the progress and outcome of pregnancy was evaluated.
(§9) Foetuses were evaluated for external, visceral and skeletal malformations and […]

[4] = test system: pregnant Wistar (Han) rats; test: Embryo-foetal development study in rats; type: in vivo, rat
Protocol: as §5, §6, §7, §8, §9

[5] = Rat micronucleus assay; type: in vivo; conditions: Sprague Dawley, rat, in vivo; male rats, oral gavage; read-out: estimate of the maximum tolerated dose
Protocol: (§10) CBD-C4 was tested for its potential to induce micronuclei (MN) in the polychromatic erythrocytes (PCE) of the bone marrow of treated rats to induce DNA damage in the liver of the same animals.
(§11) CBD-C4 was administered at a dose of 125, 250 and 500 mg/kg/day during this study. Vehicle and a positive control of ethyl methanesulfonate (EMS) at a dose of 150 mg/kg/day were tested alongside the CBD-C4.
(§12) A range finding study was performed on 9 male young adult out-bred Sprague Dawley rats justifying the chosen dose levels of CBD-C4 used during the study.
(§13) Animals were allocated into groups of six with the exception of the positive control which comprised three animals.
(§14) Rats were dosed by oral gavage with test article suspended in sesame oil, vehicle (sesame oil) or positive control.
(§15) Blood samples were taken for bioanalysis and tissue samples were removed from animals at necropsy from the liver and femur.
(§16) Bone marrow sampling, micronucleus slide preparation and comet cell suspensions were undertaken to determine level of toxicity of CBD-C4.

[6] = test system: polychromatic erythrocytes (PCE) of the bone marrow; test: Rat micronucleus assay; type: in vivo
Protocol: as §10, §11, §12, §13, §14, §15, §16

[7] = test system: DNA damage in the liver; test: Alkaline Comet assay; type: in vivo, rat
Protocol: as §10, §11, §12, §13, §14, §15, §16

[8] = test system: Salmonella typhimurium (TA98, TA100, TA1535, TA1537 and TA102); test: Ames test; type: cell-based; conditions: absence and presence of S-9
Protocol: The aim of this study was to evaluate the potential mutagenic activity of CBD-C4 by examining its ability to revert five histidine-requiring strains of Salmonella typhimurium in the absence and presence of a rat liver metabolising system (S-9).
Control treatments were performed with 2-nitrofluorene (2NF) at a final concentration of 5 μg/plate; Sodium azide (NaN3) at a final concentration of 2 μg/plate; 9-aminoacridine (AAC) at a final concentration of 50 μg/plate; Mitomycin C (MMC) at a final concentration of 0.2 μg/plate; Benzo[a]pyrene (B[a]P) at a final concentration of 10 μg/plate; and 2-aminoanthracene (AAN) at a final concentration of 5 and 20 μg/plate.
Treatments were carried out both in the absence and presence of S-9 by addition of either buffer solution or 10% S-9 mix respectively.
Five strains of Salmonella typhimurium bacteria (TA98, TA100, TA1535, TA1537 and TA102) were used in this study.
Bacteria were cultured at 37±1° C. for 10 hours in nutrient broth, containing ampicillin or ampicillin and tetracycline as appropriate, to provide bacterial cultures in the range of approximately 10^8 to 10^9 cells/mL, based on cell count data from testing of each strain batch. […]
Following incubation, these plates were examined for evidence of toxicity to the background lawn, and where possible revertant colonies were counted. […]

[9] = 1, 10 or 100 mg/kg/day oral gavage, 4 or 13 weeks
[10] = 1, 10 or 100 mg/kg/day oral, GD 6-17
[11] = 125, 250 and 500 mg/kg/day oral gavage

C=C(C)[C@@H]1CCC(C)=C[C@H]1c1c(O)cc(CCCC)cc1O [CBD-C4, (1′R,2′R)-4-butyl-5′-methyl-2′-(prop-1-en-2-yl)-1′,2′,3′,4′-tetrahydro-[1,1′-biphenyl]-2,6-diol]
NOAEL at 13 weeks ([1]; 13-week daily oral gavage, rats): 100 mg/kg/day | NOAEL at 13 weeks ([1]; 13-week oral, sesame oil formulation, rats (summary)): 100 mg/kg | clinical pathology parameters [2, 9]: no adverse changes | clinical signs [2, 9]: no adverse clinical signs | food consumption, body weight, body weight gains and ophthalmoscopy [2, 9]: unaffected | test article-related deaths [2, 9]: no test article-related deaths | tolerability [2, 9]: well tolerated | liver findings ([2]; after 4 and 13 weeks of treatment, predominantly at 100 mg/kg/day, considered non-adverse): Large livers with correlating organ weight increase and centrilobular hypertrophy | NOAEL ([3]; oral, embryo-foetal development study, sesame oil formulation (summary), read-out: NOAEL): 100 mg/kg | NOAEL ([3]; oral gavage GD 6-17, read-out: NOAEL for maternal and embryo-foetal toxicity): 100 mg/kg/day | mean body weight of females ([4]; 1 mg/kg/day): unaffected | foetal malformations ([4]; 10 mg/kg/day, different organ systems, no developmental pattern): two foetuses with malformations | mean food consumption ([4]; 100 mg/kg/day, two days after the start of dosing, compared with controls): Lower mean food consumption | CBD-C4-related foetal malformations ([4]; 1, 10 or 100 mg/kg/day): no CBD-C4-related foetal malformations | mean foetal weight and percentage of male foetuses ([4]; 1, 10 or 100 mg/kg/day): no effect | pregnancy parameters (number of implantations, pre- or post-implantation losses, number of live foetuses) ([4]; 1, 10 or 100 mg/kg/day): no effect | mortality [4, 10]: no mortality | treatment-related clinical observations [4, 10]: no treatment-related clinical observations | mean food consumption ([4]; 1 or 10 mg/kg/day): unaffected | mean body weight of females ([4]; 10 or 100 mg/kg/day, one day after the start of dosing on Day 6 of gestation): Dose-related mean body weight loss | foetal variations ([4]; any of the groups maternally dosed): no noteworthy foetal variations | tolerability ([4]; dose levels up to 100 mg/kg/day, pregnant rats): well tolerated | foetal malformations ([4]; maternally dosed at 1 or 100 mg/kg/day): no malformations | MTD [5]: ~500 mg/kg/day | bone marrow toxicity [6, 11]: no evidence of test article related bone marrow toxicity | micronucleus PCE frequencies ([6]; all doses (125, 250 and 500 mg/kg/day) oral gavage): comparable with the vehicle control group | induction of micronuclei in polychromatic erythrocytes of the bone marrow ([6]; male rats treated up to 500 mg/kg/day): did not induce an increase in micronuclei; also recorded: No genotoxicity was observed | % hedgehogs in liver [7, 11]: no dose-related increase | group mean tail intensity and tail moment ([7]; all groups, 125, 250 and 500 mg/kg/day oral gavage): comparable with the group mean vehicle control data | DNA damage in the liver (Comet assay) ([7]; up to 500 mg/kg/day oral gavage): did not induce DNA damage; also recorded: No genotoxicity was observed | increases in revertant numbers vs concurrent vehicle control ([8]; 5-5000 μg/plate, all test strains): no increases in revertant numbers | mutagenic activity ([8]; five strains): No genotoxicity was observed; also recorded: no evidence of any CBD-C4 mutagenic activity; also recorded: does not induce mutation
